The experiment deals with T1, Serotonin-reuptake Sites (Rattus norvegicus, UniProt P31652).
T1 construct: The membranes are prepared from rat frontal cortex; from tissue; host or cells: rat frontal cortex membranes
Nature of the experiment: Determination of Affinity for Serotonin-reuptake Sites in the Rat ([^3 H]-paroxetine competition). It counts as binding. As to conditions: read-out: dissociation constant Ki. The procedure:
Determination of Affinity for Serotonin-reuptake Sites in the Rat
The incubation buffer contains 50 mM TRIS-HCl (pH 7.4), 120 mM NaCl and 5 mM KCl. Non-specific binding is determined using 10 μM citalopram. At the end of the incubation, the mixture is filtered through filters and washed three times with 5 ml of cooled buffer. The radioactivity retained on the filters is determined by liquid scintillation counting. The binding isotherms are analysed by non-linear regression to determine the IC50 values. The latter are converted into a dissociation constant (Ki) using the Cheng-Prusoff equation: […]

Where a name gives a salt, the structure may show the parent alone.

The term Ki denotes the equilibrium dissociation constant of an inhibitor or competing ligand from its target.

T1 sequence (P31652 whole entry): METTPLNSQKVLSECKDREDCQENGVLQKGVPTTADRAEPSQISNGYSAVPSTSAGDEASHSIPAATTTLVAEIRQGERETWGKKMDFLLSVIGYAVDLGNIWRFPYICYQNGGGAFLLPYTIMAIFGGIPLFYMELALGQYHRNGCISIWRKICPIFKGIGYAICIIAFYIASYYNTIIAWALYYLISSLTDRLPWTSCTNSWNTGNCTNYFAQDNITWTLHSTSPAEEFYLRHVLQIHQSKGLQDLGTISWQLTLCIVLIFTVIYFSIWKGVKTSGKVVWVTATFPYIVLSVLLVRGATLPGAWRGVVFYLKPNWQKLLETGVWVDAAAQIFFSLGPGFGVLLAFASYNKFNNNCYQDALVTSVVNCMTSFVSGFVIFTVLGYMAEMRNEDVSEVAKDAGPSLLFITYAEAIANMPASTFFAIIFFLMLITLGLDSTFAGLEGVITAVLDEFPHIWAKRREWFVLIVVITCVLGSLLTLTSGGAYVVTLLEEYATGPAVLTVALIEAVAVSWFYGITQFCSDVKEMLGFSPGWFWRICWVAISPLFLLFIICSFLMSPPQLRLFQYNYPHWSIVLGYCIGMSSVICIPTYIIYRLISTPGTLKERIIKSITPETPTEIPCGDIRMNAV

For `COc1cncnc1N1CCN(CCCn2ccc3ccc(C#N)cc32)CC1` [Example 1, 1-{3-[4-(5-Methoxy-4-pyrimidinyl)-1-piperazinyl]propyl}-1H-indole-6-carbonitrile dihydrochloride], the inhibition constant (Ki) came to 9.8 nM.
